A short description of data set [1]: Hygroscopicity determination (vapor sorption). The note with it: room temperature (25° C.). Type of data set: physicochemical. The method, then:
Hygroscopicity Determination
The weight change of a test sample at room temperature (25° C.) and at 80% relative humidity (RH) was investigated by recording adsorption-desorption isotherms using a symmetric vapor-sorption analyser SGA-100 (VTI Corporation) using different methods, the main features being: a single sorption/desorption cycle from 0 to 90% RH in 10% RH steps with a dm/dt trigger value of 0.002%, (dm/dt=change in mass with time—when the balance stability is within this value the next step is automatically started, however, if those conditions are not achieved there is a default maximum time for each step of 6 hours). Approximately 2 to 10 mg of the test sample was placed in a sample holder and exposed to different relative humidities.

Data set [2] is described as follows: Estimated solubility of the salt in organic solvents. The conditions noted are these: organic solvent or mixture. Type of data set: physicochemical. The procedure:
(a) Form B was prepared by dissolving, in a vial, 20% w of a sample of the furoate salt prepared by the method of Example 1(b) (Form A) in a solvent such as ethanol (16 mg/ml) or 2-butanol (8 mg/ml). The figures in brackets indicate the estimated solubility of the salt in these solvents. The vial was then sealed and the suspension was homogenised at ambient temperature (20° C.) using a magnet. Stirring and temperature were maintained for a period of at least 7 days after which time a sample of the material obtained was dried and tested by XRPD. XRPD confirmed that there had been complete transformation of Form A to Form B.

For data set [3], the target named is T1, human CCR1 (Homo sapiens, UniProt P32246).
T1 construct: expressed in transfected cells; membrane preparation
T1 sequence (P32246 1-355): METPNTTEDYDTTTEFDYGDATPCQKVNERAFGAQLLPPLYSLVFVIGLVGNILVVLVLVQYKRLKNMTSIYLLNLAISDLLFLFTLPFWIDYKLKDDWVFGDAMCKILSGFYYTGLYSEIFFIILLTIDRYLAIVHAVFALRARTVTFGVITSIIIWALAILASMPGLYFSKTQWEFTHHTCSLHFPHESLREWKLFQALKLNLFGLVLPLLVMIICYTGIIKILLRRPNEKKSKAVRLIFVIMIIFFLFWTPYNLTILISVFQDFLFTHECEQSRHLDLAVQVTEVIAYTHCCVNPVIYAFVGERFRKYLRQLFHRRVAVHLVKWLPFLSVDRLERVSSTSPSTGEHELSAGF
The data set can be described thus: Human CCR1 binding assay. The note with it: HEK-CCR1 membranes, displacement of 33 pM [125I] MIP-1α.
Method: HEK293 cells, from ECACC, stably expressing recombinant human CCR1 (HEK-CCR1) were used to prepare cell membranes containing CCR1. The membranes were stored at −70° C. The concentration of membranes of each batch was adjusted to 10% specific binding of 33 pM [^125I] MIP-1α.
100 μL of HEK-CCR1 membranes diluted in assay buffer pH 7.4 (137 mM NaCl (Merck, Cat No 1.06404), 5.7 mM Glucose (Sigma, Cat No G5400), 2.7 mM KCl (Sigma, Cat No P-9333), 0.36 mM NaH2PO4×H2O (Merck, Cat No 1.06346), 10 mM HEPES (Sigma, Cat No H3375), 0.1% (w/v) Gelatine (Sigma, Cat No G2625)) with the addition of 17500 units/L Bacitracin (Sigma, Cat No B 1025) were added to each well of the 96 well filter plate (0.45 μm opaque Millipore cat no MHVB N4550). […] 12 μl assay buffer with 10% DMSO was added to certain wells (without compound) to detect maximal binding (B0).
12 μL [^125I] MIP-1α, diluted in assay buffer to a final concentration in the wells of 33 pM, was added to all wells. The plates with lid were then incubated for 1.5 hrs at room temperature. After incubation the wells were emptied by vacuum filtration (MultiScreen Resist Vacuum Manifold system, Millipore) and washed once with 200 μl assay buffer. After the wash, all wells received an addition of 50 μL of scintillation fluid (OptiPhase “Supermix”, Wallac Oy, Turko, Finland). Bound [^125I] MIP-1α was measured using a Wallac Trilux 1450 MicroBeta counter. […]

Read-outs that look alike come from different tables or passages of the source.

As to `CC(=O)Nc1ccc(O)cc1OC[C@@](C)(O)CNC1CCN(Cc2ccc(Cl)cc2)CC1` [Form A, N-{2-[((2S)-3-{[1-(4-chlorobenzyl)piperidin-4-yl]amino}-2-hydroxy-2-methylpropyl)oxy]-4-hydroxyphenyl}acetamide furoate], the “Water Uptake (% w/w) at 80% RH” value in data set [1] is below 0.8 % w/w. For the same compound, the solubility is 8 mg/mL in data set [2] (solvent 2-butanol, read-out: estimated solubility of the salt in 2-butanol) and 16 mg/mL in data set [2] (solvent ethanol, read-out: estimated solubility of the salt in ethanol).
In turn, `CC(=O)Nc1ccc(O)cc1OC[C@@](C)(O)CNC1CCN(Cc2ccc(Cl)cc2)CC1` [N-{2-[((2S)-3-{[1-(4-chlorobenzyl)piperidin-4-yl]amino}-2-hydroxy-2-methylpropyl)oxy]-4-hydroxyphenyl}acetamide ditrifluoroacetate] displayed an IC50 in data set [3] below 50 nM.

Values taken from patent US20080280951A1, “Salt Il” (ASTRAZENECA AB, priority 2005, published 2008).
